Where a name gives a salt, the structure may show the parent alone.
Columns and labels:
[1] = target: Sodium-dependent dopamine transporter (Rattus norvegicus, UniProt P23977)
[2] = target: Norepinephrine transporter (Rattus norvegicus, UniProt Q9JIA2)
[3] = target: T1, Muscarinic acetylcholine receptor M2 (Rattus norvegicus, UniProt P10980)
T1 sequence (P10980 whole entry): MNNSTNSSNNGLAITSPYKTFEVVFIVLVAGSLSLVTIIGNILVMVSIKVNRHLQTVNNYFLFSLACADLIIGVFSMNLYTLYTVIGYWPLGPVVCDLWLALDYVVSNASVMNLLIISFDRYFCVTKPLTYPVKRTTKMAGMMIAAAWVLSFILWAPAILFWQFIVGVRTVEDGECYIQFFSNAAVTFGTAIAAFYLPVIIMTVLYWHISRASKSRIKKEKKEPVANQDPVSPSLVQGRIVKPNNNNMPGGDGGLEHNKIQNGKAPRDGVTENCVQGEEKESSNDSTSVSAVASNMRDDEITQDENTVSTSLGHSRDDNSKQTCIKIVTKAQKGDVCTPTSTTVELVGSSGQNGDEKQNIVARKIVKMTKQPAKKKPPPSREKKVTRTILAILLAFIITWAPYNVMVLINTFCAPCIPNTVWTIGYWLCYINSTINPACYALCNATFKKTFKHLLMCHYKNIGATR

Sodium-dependent dopamine transporter, sequence (P23977 whole entry): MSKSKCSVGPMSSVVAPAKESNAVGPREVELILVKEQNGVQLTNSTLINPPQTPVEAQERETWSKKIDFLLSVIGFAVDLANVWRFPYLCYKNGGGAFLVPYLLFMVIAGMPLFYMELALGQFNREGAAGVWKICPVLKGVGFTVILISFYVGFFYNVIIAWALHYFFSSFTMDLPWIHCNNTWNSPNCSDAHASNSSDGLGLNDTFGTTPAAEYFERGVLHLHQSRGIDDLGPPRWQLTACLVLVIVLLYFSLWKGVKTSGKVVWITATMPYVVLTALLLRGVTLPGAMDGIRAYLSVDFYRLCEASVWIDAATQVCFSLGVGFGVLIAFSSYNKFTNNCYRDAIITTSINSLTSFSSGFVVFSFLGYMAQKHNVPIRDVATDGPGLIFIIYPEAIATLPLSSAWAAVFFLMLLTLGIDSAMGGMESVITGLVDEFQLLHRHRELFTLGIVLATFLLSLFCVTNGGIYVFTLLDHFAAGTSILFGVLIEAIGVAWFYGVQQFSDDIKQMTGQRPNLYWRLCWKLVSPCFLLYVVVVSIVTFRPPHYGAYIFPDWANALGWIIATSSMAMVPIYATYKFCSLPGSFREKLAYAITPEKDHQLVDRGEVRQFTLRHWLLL

Row | Ki [3] | SMILES | Ki [1] | Ki [2]
1 | 0.71 µM | CN(C)CC/C=C1/c2ccccc2COc2ccccc21 | – | –
2 | 3.5 µM | CNCCCN1c2ccccc2CCc2ccccc21 [Desmethylimipramine] | – | –

The remaining lines, values behind:

Row | SMILES | Ki [3] | Ki [1] | Ki [2]
3 | CN(C)C/C=C(/c1ccc(Br)cc1)c1cccnc1 [cis-[3-(4-Bromo-phenyl)-3-pyridin-3-yl-allyl]-dimethyl-amine;HCl] | – | > 10 µM | –
4 | CNC/C=C(/c1ccc(Br)cc1)c1cccnc1 | – | > 10 µM | –
5 | CNCCC=C1c2ccccc2CCc2ccccc21 [NORTRIPTYLINE] | – | > 10 µM | 0.025 µM
6 | N[C@H]1CC[C@@H](c2ccc(Cl)c(Cl)c2)c2ccccc21 | – | 3.8 µM | 4.6 µM
7 | COCCCC/C(=N\OCCN)c1ccc(C(F)(F)F)cc1 [(1E)-5-methoxy-1-[4-(trifluoromethyl)phenyl]pentan-1-one O-(2-aminoethyl)oxime] | – | > 10 µM | 1.9 µM
8 | CN(C)CCC=C1c2ccccc2CCc2ccccc21 | 0.32 µM | > 10 µM | 0.13 µM
9 | CN[C@@H]1CC[C@@H](c2ccc(Cl)c(Cl)c2)c2ccccc21 [[4-(3,4-Dichloro-phenyl)-1,2,3,4-tetrahydro-naphthalen-1-yl]-methyl-amine] | > 10 µM | – | –
10 | CN(C)CCCN1c2ccccc2CCc2ccc(Cl)cc21 [CLOMIPRAMINE HYDROCHLORIDE] | – | 8.1 µM | –
11 | CN[C@@H]1CC[C@@H](c2ccccc2)c2ccccc21 | 4.7 µM | 0.15 µM | 0.018 µM
